Experiment [1] relates to human peripheral blood mononuclear cell (PBMC) derived monocytes. Put plainly: Endotoxin-induced TNF production in monocyte/fibroblast cultures (ELISA). The experiment is classed as cell-based. To be noted: LPS 1 ug/ml, FIG. 5. On the procedure: Hydroxychloroquine (Sigma Aldrich) was diluted at the concentrations indicated. Levels of tumor necrosis factor (TNF) were assessed by ELISA.
On the technique in general: In an ELISA, binding on a coated surface is turned into a signal by an enzyme label.

For a further experiment, the system named is neutrophils. The conditions noted are these: cited from earlier work; for neutrophil apoptosis: 100 ng/mL.
A further experiment concerns healthy rats. To be noted: 500 ng intra-tracheally; within 5 hours; versus saline-treated control rats; cited from earlier work.

Like-named read-outs stand apart in the source and are kept apart here.

Data on 2 compounds can be found in patent US20230127499A1, “PEPTIDES AND ADJUVANTS FOR AU[…] […] FOR CORONAVIRUS” (FIGENE, LLC, priority 2020, published 2023).

As for `CCN(CCO)CCCC(C)Nc1ccnc2cc(Cl)ccc12` (stereo not shown) [hydroxychloroquine], the “production of TNF-alpha from macrophages” value in experiment [1] is given as “suppressed production of TNF-alpha”.
Consider TNF-alpha, for which the neutrophil apoptosis entry with neutrophils (at 4-8 h) is reported as “increased”. Moreover, the neutrophil apoptosis result in the experiment with neutrophils (at 24 h) is listed as “markedly suppressed”. The “levels of IL-8” value in the experiment with neutrophils (PMN cultured for 24 h) is on record as “markedly increased”. Moreover, in the experiment with healthy rats, the lung lavage neutrophils result is given as “substantially higher”, the lung leak result is “substantially higher” and the “lung myeloperoxidase (MPO) activity” value is “substantially higher”.
